What was measured:
[1] = Binding affinity to 5'-GGCCCCCC-3' DNA hairpin assessed as change in fluorescence intensity at 1 uM after 45 mins by fluorescence quenching analysis relative to control
[2] = Binding affinity to 5'-GCCCCCCG-3' DNA hairpin assessed as change in fluorescence intensity at 1 uM after 45 mins by fluorescence quenching analysis relative to control
[3] = Binding affinity to 5'-CCCCCCCG-3' DNA hairpin assessed as change in fluorescence intensity at 1 uM after 45 mins by fluorescence quenching analysis relative to control
[4] = Binding affinity to 5'-GGCCCCGG-3' DNA hairpin assessed as change in fluorescence intensity at 1 uM after 45 mins by fluorescence quenching analysis relative to control
[5] = Binding affinity to 5'-GCCCCGGG-3' DNA hairpin assessed as change in fluorescence intensity at 1 uM after 45 mins by fluorescence quenching analysis relative to control
[6] = Binding affinity to 5'-CGGGGGGC-3' DNA hairpin assessed as change in fluorescence intensity at 1 uM after 45 mins by fluorescence quenching analysis relative to control
[7] = Binding affinity to 5'-CGGGCCCC-3' DNA hairpin assessed as change in fluorescence intensity at 1 uM after 45 mins by fluorescence quenching analysis relative to control
[8] = Binding affinity to 5'-CCCCCGCG-3' DNA hairpin assessed as change in fluorescence intensity at 1 uM after 45 mins by fluorescence quenching analysis relative to control
[9] = Binding affinity to 5'-GGGGGCGC-3' DNA hairpin assessed as change in fluorescence intensity at 1 uM after 45 mins by fluorescence quenching analysis relative to control
[10] = Binding affinity to 5'-CCGGGGCG-3' DNA hairpin assessed as change in fluorescence intensity at 1 uM after 45 mins by fluorescence quenching analysis relative to control
[11] = Binding affinity to 5'-GCCCGGGG-3' DNA hairpin assessed as change in fluorescence intensity at 1 uM after 45 mins by fluorescence quenching analysis relative to control
[12] = Binding affinity to 5'-CCGGCCCC-3' DNA hairpin assessed as change in fluorescence intensity at 1 uM after 45 mins by fluorescence quenching analysis relative to control
[13] = Binding affinity to 5'-GGCCGCGC-3' DNA hairpin assessed as change in fluorescence intensity at 1 uM after 45 mins by fluorescence quenching analysis relative to control
[14] = Binding affinity to 5'-CCCGGCGG-3' DNA hairpin assessed as change in fluorescence intensity at 1 uM after 45 mins by fluorescence quenching analysis relative to control
[15] = Binding affinity to 5'-CCGCCCCC-3' DNA hairpin assessed as change in fluorescence intensity at 1 uM after 45 mins by fluorescence quenching analysis relative to control
[16] = Binding affinity to 5'-CCCCGCGC-3' DNA hairpin assessed as change in fluorescence intensity at 1 uM after 45 mins by fluorescence quenching analysis relative to control
[17] = Binding affinity to 5'-GGCGGGGG-3' DNA hairpin assessed as change in fluorescence intensity at 1 uM after 45 mins by fluorescence quenching analysis relative to control
[18] = Binding affinity to 5'-CGGCGCGG-3' DNA hairpin assessed as change in fluorescence intensity at 1 uM after 45 mins by fluorescence quenching analysis relative to control
[19] = Binding affinity to 5'-GGGGCGGG-3' DNA hairpin assessed as change in fluorescence intensity at 1 uM after 45 mins by fluorescence quenching analysis relative to control
[20] = Binding affinity to 5'-CGGCGGCC-3' DNA hairpin assessed as change in fluorescence intensity at 1 uM after 45 mins by fluorescence quenching analysis relative to control
[21] = Binding affinity to 5'-GCCCGCCG-3' DNA hairpin assessed as change in fluorescence intensity at 1 uM after 45 mins by fluorescence quenching analysis relative to control
[22] = Binding affinity to 5'-CGGCCGGC-3' DNA hairpin assessed as change in fluorescence intensity at 1 uM after 45 mins by fluorescence quenching analysis relative to control
[23] = Binding affinity to 5'-GCCGGCCG-3' DNA hairpin assessed as change in fluorescence intensity at 1 uM after 45 mins by fluorescence quenching analysis relative to control
[24] = Binding affinity to 5'-CCCGCGGC-3' DNA hairpin assessed as change in fluorescence intensity at 1 uM after 45 mins by fluorescence quenching analysis relative to control
[25] = Binding affinity to 5'-CGCCCGCG-3' DNA hairpin assessed as change in fluorescence intensity at 1 uM after 45 mins by fluorescence quenching analysis relative to control
[26] = Binding affinity to 5'-CCGGCGGC-3' DNA hairpin assessed as change in fluorescence intensity at 1 uM after 45 mins by fluorescence quenching analysis relative to control
[27] = Binding affinity to 5'-GCCGCCGC-3' DNA hairpin assessed as change in fluorescence intensity at 1 uM after 45 mins by fluorescence quenching analysis relative to control
[28] = Binding affinity to 5'-CGCCGGCC-3' DNA hairpin assessed as change in fluorescence intensity at 1 uM after 45 mins by fluorescence quenching analysis relative to control
[29] = Binding affinity to 5'-CGCGCCCG-3' DNA hairpin assessed as change in fluorescence intensity at 1 uM after 45 mins by fluorescence quenching analysis relative to control
[30] = Binding affinity to 5'-CGGGGCGC-3' DNA hairpin assessed as change in fluorescence intensity at 1 uM after 45 mins by fluorescence quenching analysis relative to control
[31] = Binding affinity to 5'-CCGGGCGG-3' DNA hairpin assessed as change in fluorescence intensity at 1 uM after 45 mins by fluorescence quenching analysis relative to control
[32] = Binding affinity to 5'-GCGCGGGC-3' DNA hairpin assessed as change in fluorescence intensity at 1 uM after 45 mins by fluorescence quenching analysis relative to control
[33] = Binding affinity to 5'-GCCGCCGG-3' DNA hairpin assessed as change in fluorescence intensity at 1 uM after 45 mins by fluorescence quenching analysis relative to control
[34] = Binding affinity to 5'-GCCGCGGC-3' DNA hairpin assessed as change in fluorescence intensity at 1 uM after 45 mins by fluorescence quenching analysis relative to control
[35] = Binding affinity to 5'-GGGCGCGC-3' DNA hairpin assessed as change in fluorescence intensity at 1 uM after 45 mins by fluorescence quenching analysis relative to control
[36] = Binding affinity to 5'-CCCGCGCC-3' DNA hairpin assessed as change in fluorescence intensity at 1 uM after 45 mins by fluorescence quenching analysis relative to control

NCC1O[C@H](O[C@H]2[C@@H](O)[C@H](O[C@@H]3[C@@H](O)[C@H](N)C[C@H](N)[C@H]3O[C@H]3O[C@H](CN)[C@@H](O)[C@H](O)[C@H]3N)O[C@@H]2CSCCNC(=O)CCSCC(=O)Nc2ccc(-c3c4ccc(=O)cc-4oc4cc(O)ccc34)c(C(=O)O)c2)[C@H](N)[C@@H](O)[C@@H]1O (stereo partly specified)
Activity [1]: 15%
Activity [2]: 19.8%
Activity [3]: 19.9%
Activity [4]: 20.2%
Activity [5]: 28.8%
Activity [6]: 32.2%
Activity [7]: 35.1%
Activity [8]: 35.4%
Activity [9]: 35.6%
Activity [10]: 37.5%
Activity [11]: 38.8%
Activity [12]: 39.4%
Activity [13]: 39.6%
Activity [14]: 39.8%
Activity [15]: 41.4%
Activity [16]: 41.4%
Activity [17]: 41.5%
Activity [18]: 43.2%
Activity [19]: 43.6%
Activity [20]: 43.8%
Activity [21]: 43.8%
Activity [22]: 44.9%
Activity [23]: 45.3%
Activity [24]: 45.4%
Activity [25]: 45.7%
Activity [26]: 47.4%
Activity [27]: 47.9%
Activity [28]: 48.6%
Activity [29]: 48.8%
Activity [30]: 49%
Activity [31]: 50.1%
Activity [32]: 51.8%
Activity [33]: 54.5%
Activity [34]: 56.3%
Activity [35]: 58.3%
Activity [36]: 63.4%

Source: ChEMBL document CHEMBL4000244, “Probing A-form DNA: A fluorescent aminosugar probe and dual recognition by anthraquinone-neomycin conjugates” (Bioorg Med Chem, 2017)
